Test results reported in US9371265B2, “Compositions and methods related to inhibitors of JAK kinase” (EP PHARMA, INC., priority 2012, dated 2016).

Assays:
INSR = INSR (Homo sapiens, UniProt P06213); test: Kinase panel: INSR; type: biochemical; conditions: 10 μM EP009
Method: (§1) Achieving JAK3 selectivity remains a significant challenge in the development of new small molecules for the treatment of cancer and immune-derived diseases. As such, the inventors employed cell-based screening assays of small-molecule libraries based upon the chemical scaffold of the established JAK3 inhibitor NC1153 (Stepkowski et al., J Immunol. (2005), 175(7):4236-4246) EP009 (FIG. 2A) was selected as a lead compound due to improved intrinsic stability (>95% purity in various solvents at 37° C. for 24 hours; FIG. 3) and high-degree of JAK3 selectivity. To test JAK3 versus JAK2 specificity of EP009, the IL-2/JAK3-dependent Kit225, and IL-3/JAK2-dependent BaF/3 cell lines were used. Kit225 and BaF/3 cells growing in the presence of IL-2 or IL-3, respectively, were treated with ascending concentrations of EP009 for 12 hours and cellular JAK3 and JAK2 tyrosine phosphorylation levels detected by Western blot analysis (FIGS. 2B and 2C). Following densitometric analysis, EP009 was determined to dose-dependently reduce IL-2-mediated JAK3 tyrosine phosphorylation with a cellular 50% inhibitory concentration (IC50) between 10 and 20 μM (FIG. 2B). […] To globally evaluate specificity, the inhibitory activity of EP009 was measured against a panel of protein kinases distributed throughout the kinome using the scanEDGE profiling service (KINOMEscan). […]

JAK3 = JAK3 (Homo sapiens, UniProt P52333); test: Constitutive JAK3 tyrosine phosphorylation in SU-DHL-1 cells (IP/Western blot); type: cell-based; design: cellular JAK3 and JAK2 tyrosine phosphorylation levels detected by Western blot analysis; endogenous in cells; conditions: 20 μM EP009, 12 hours, vs vehicle
Chain of JAK3 (P52333 whole entry): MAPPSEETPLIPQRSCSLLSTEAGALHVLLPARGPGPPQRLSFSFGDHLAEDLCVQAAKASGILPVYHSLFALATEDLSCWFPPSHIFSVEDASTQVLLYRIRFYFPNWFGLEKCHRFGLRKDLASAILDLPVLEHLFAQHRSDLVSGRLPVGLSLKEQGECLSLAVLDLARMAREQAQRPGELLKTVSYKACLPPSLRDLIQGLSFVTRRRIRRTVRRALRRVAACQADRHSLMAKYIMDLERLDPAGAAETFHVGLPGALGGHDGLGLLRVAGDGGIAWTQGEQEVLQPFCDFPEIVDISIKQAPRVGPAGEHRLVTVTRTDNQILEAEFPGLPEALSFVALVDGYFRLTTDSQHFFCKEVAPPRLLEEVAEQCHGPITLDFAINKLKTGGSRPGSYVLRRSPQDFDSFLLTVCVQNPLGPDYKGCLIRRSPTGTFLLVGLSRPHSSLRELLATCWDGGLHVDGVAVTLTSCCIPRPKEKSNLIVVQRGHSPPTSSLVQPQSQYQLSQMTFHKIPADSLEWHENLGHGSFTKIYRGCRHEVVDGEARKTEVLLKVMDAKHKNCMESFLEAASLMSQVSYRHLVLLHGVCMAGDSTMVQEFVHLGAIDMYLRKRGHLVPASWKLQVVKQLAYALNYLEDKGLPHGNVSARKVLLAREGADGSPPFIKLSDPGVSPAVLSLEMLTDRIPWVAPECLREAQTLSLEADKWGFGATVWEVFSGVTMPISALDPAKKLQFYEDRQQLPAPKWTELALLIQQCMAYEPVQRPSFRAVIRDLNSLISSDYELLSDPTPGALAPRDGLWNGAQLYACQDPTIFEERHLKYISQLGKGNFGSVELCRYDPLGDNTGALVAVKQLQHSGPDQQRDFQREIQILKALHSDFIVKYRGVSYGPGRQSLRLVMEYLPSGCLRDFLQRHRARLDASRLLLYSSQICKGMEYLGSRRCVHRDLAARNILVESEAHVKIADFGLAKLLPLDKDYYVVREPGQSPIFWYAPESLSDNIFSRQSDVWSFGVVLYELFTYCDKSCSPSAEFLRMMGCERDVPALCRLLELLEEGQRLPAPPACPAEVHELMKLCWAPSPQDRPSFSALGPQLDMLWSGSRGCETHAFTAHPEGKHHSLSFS
Source text: FIGS. 6A-6B. EP009 treatment disrupts constitutive JAK3/STAT3 pathway activation and down-regulates CD30 cell surface expression in human ALCL cells. (A) Kit225 (lane a), SUP-M2 (lane b), Karpas299 (lane c), DEL (lane d) and SU-DHL-1 (lane e) total cell lysates were separated by 7.5% SDS-PAGE (upper panel) or were immunoprecipitated (IP) with JAK3 antibodies (lower panel) and separated on 7.5% SDS-PAGE, and then subjected to Western blot (WB) analysis with the indicated antibodies. (B) SU-DHL-1 cells were treated with vehicle (PBS; lane a) or increasing amounts of EP009 (0-40 μM; lanes b-e) for 12 hours. Cells were then lysed, clarified, and immunoprecipitated (IP) with anti-JAK3 (α-JAK3), and subjected to Western blot (WB) analysis with anti-phosphotyrosine (α-pY). Blots were stripped and reprobed with α-JAK3 to verify equivalent protein loading. (C) SU-DHL-1 cells were treated with vehicle (PBS) or increasing amounts of EP009 (0-40 μM) for 12 hours. […] Values represent pSTAT mean fluorescence intensity (MFI) normalized to corresponding GAPDH MFI, while error bars represent the standard deviation (n=2). Statistical significance was determined using Student's t-test. […] Cells were then analyzed by flow cytometry for CD30 expression. […]

BMPR2 = BMPR2 (Homo sapiens, UniProt Q13873); test: Kinase panel: BMPR2; type: biochemical; conditions: 10 μM EP009
Chain of BMPR2 (Q13873 27-1038): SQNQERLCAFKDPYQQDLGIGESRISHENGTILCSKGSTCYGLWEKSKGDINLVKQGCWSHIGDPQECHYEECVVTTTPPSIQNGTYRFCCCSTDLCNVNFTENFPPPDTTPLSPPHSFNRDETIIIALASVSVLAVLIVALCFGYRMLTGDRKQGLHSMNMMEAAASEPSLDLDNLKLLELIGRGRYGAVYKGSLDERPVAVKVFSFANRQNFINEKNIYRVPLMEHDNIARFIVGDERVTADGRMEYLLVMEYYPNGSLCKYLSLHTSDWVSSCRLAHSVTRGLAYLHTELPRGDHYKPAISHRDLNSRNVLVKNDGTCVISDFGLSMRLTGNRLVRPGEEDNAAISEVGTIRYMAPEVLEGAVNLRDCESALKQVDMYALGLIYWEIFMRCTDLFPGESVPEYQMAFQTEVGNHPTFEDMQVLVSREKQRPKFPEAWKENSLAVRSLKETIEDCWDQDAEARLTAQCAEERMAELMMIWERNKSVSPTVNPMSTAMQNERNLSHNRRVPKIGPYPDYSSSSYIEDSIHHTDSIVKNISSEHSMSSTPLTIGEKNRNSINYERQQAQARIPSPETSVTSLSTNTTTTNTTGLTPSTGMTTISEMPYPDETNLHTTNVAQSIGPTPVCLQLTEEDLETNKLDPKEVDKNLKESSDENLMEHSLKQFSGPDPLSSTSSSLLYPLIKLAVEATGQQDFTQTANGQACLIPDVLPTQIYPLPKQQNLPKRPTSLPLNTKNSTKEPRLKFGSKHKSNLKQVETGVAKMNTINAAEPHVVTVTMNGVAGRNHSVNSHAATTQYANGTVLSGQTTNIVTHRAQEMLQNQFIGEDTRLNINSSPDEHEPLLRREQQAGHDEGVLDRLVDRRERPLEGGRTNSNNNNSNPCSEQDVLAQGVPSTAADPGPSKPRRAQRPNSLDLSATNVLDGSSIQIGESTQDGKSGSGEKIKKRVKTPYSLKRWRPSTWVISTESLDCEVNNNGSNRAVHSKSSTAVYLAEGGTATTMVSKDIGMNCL
Method: as §1

YANK3 = YANK3 (Homo sapiens, UniProt Q86UX6); test: Kinase panel: YANK3; type: biochemical; conditions: 10 μM EP009
Chain of YANK3 (Q86UX6 whole entry): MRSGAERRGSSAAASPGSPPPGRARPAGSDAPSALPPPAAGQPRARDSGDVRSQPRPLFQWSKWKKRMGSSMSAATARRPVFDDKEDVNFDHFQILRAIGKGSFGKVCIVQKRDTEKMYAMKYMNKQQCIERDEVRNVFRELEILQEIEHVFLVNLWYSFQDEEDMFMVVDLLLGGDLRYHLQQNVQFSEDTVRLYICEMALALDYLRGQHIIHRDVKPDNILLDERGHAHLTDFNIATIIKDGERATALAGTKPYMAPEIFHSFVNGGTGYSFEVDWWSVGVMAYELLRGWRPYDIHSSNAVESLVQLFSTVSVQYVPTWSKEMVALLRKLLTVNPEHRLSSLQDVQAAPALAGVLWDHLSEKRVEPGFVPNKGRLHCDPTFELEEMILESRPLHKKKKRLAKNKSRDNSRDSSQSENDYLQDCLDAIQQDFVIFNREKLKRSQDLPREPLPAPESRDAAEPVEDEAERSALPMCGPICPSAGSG
Method: as §1

ADCK3 = ADCK3 (Homo sapiens, UniProt Q8NI60); test: Kinase panel: ADCK3; type: biochemical; conditions: 10 μM EP009
Chain of ADCK3 (Q8NI60 163-647): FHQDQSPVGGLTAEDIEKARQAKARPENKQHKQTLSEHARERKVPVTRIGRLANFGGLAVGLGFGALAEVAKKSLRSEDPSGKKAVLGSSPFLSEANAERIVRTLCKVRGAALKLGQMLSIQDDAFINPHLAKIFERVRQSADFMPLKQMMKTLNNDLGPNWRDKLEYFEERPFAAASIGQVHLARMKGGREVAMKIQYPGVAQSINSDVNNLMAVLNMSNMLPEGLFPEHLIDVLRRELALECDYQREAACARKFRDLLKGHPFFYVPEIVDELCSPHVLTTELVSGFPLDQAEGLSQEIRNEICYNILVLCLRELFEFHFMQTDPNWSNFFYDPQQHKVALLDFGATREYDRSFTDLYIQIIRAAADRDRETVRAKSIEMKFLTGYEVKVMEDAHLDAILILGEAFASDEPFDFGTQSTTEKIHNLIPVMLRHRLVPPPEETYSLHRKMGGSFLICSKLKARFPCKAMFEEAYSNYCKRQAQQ
Method: as §1

ERBB4 = ERBB4 (Homo sapiens, UniProt Q15303); test: Kinase panel: ERBB4; type: biochemical; conditions: 10 μM EP009
Method: as §1

p38-alpha = p38-alpha (Homo sapiens, UniProt Q16539); test: Kinase panel: p38-alpha; type: biochemical; conditions: 10 μM EP009
Chain of p38-alpha (Q16539 whole entry): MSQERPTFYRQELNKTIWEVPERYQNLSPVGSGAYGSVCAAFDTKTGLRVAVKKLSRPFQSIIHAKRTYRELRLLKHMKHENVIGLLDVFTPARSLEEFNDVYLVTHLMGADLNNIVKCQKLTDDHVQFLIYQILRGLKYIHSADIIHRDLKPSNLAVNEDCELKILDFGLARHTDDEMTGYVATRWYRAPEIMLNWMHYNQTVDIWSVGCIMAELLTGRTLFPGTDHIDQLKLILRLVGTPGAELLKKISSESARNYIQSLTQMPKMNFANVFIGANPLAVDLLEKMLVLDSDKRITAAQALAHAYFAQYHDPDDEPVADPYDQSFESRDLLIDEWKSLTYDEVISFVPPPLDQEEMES
Method: as §1

Chain of INSR (P06213 28-1382): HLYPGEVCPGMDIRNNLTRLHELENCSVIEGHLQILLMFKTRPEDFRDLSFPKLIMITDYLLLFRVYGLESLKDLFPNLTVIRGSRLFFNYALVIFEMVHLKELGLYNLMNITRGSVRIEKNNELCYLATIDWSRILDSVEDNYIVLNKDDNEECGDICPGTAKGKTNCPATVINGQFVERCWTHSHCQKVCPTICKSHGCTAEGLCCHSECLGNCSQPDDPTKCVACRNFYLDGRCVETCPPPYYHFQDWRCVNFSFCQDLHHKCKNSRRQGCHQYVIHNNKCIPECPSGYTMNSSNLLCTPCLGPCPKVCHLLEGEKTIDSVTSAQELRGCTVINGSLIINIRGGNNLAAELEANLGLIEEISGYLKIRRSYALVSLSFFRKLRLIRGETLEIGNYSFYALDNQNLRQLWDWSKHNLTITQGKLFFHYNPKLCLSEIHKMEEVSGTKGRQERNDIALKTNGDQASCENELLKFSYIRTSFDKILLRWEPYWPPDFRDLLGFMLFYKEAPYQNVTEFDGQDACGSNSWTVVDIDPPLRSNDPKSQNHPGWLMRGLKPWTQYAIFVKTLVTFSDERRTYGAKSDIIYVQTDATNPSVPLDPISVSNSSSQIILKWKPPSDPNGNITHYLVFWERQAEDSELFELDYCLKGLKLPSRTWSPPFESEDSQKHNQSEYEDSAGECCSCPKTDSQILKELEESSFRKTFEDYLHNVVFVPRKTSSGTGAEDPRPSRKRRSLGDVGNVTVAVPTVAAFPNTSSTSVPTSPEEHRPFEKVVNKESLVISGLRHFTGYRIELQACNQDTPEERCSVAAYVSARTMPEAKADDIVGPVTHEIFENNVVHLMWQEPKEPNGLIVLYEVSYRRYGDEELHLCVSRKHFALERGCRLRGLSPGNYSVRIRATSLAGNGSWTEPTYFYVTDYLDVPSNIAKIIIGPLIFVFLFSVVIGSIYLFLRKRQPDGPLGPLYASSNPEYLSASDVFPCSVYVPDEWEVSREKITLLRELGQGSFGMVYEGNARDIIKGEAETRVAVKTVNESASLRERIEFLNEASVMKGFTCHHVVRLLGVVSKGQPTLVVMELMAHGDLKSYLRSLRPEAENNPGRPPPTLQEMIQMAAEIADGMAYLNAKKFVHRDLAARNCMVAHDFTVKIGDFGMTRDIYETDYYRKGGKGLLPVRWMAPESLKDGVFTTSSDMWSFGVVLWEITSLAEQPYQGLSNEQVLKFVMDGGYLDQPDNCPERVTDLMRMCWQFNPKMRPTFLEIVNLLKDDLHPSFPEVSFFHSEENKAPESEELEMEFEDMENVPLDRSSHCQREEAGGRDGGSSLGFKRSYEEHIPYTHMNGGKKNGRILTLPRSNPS

## C=C1CCCCCCCCCC(CO)C1=O (stereo not shown) [EP009, 2-(Hydroxymethyl)-12-methylenecyclododecanone]
INSR
  Kinase Activity (% of Control): 100 % of Control
JAK3
  decrease in JAK3 tyrosine phosphorylation levels: 70%
BMPR2
  Kinase Activity (% of Control): 75 % of Control
YANK3
  Kinase Activity (% of Control): 98 % of Control
ADCK3
  Kinase Activity (% of Control): 98 % of Control
ERBB4
  Kinase Activity (% of Control): 91 % of Control
p38-alpha
  Kinase Activity (% of Control): 100 % of Control
